According to US20240335462A1, “SULFUR/PHOSPHORUS-CONTAINING ARYL COMPOUND AND APPLICATION THEREOF” (MEDSHINE DISCOVERY INC., priority 2021, published 2024):

Experiments:
Ba/F3-TEL-TYK2 cells = assay: Proliferation of Ba/F3-TEL-TYK2 cells (CellTiter-Glo); assay type: cell-based; conditions: 72 hours, read-out: Half maximal inhibitory concentration IC50 for cells Ba/F3-TEL-TYK2
Source text: Adenosine triphosphate (ATP) serves as a universal energy carrier in various life processes, representing the smallest unit of energy storage and transfer. The CellTiter-Glo™ Luminescent Cell Viability Assay Kit utilizes luciferase as a detection agent. During the luminescent process, luciferase requires the participation of ATP. By adding CellTiter-Glo™ reagent to the cell culture medium and measuring the luminescence, the light signal was directly proportional to the amount of ATP in the system, and ATP was positively correlated with the number of viable cells. Therefore, cell proliferation can be detected by measuring ATP content using the CellTiter-Glo kit. In this test, the cell lines used were Ba/F3-FL-TYK2-E957D and Ba/F3-TEL-TYK2. Ba/F3-FL-TYK2-E957D cells can stably express the exogenously introduced human TYK2-E957D gene, and the TYK2-E957D gene sequence contains both JH1 and JH2 domains. On the other hand, Ba/F3-TEL-TYK2 cells can stably express the exogenously introduced human TEL-TYK2 gene, and the TEL-TYK2 gene sequence contains only the JH1 domain of TYK2.
The cell lines were cultured in an incubator at 37° C. with 5% CO2. Regular passaging was performed, and cells in the logarithmic growth phase were selected for plating.
• a) The test compounds were prepared into a 10 mM solution with DMSO, and then diluted to 0.3 or 1 mM with DMSO. • b) Preparation of 1000× compound storage plate (tube): The compounds were 3-fold serially diluted from the highest concentration to the lowest concentration, creating 9 different concentrations. • c) Preparation of 20× compound working solution: 49 μL of cell culture medium was added to a flat-bottomed 96-well transparent drug plate. From the 1000× compound storage plate, 1 μL of the compound was pipetted into the cell culture medium in the 96-well transparent drug plate. In the solvent control, 1 μL of DMSO was added. After the compound or DMSO was added, the mixture was homogenized using a multi-channel pipette.
• a) Cells were stained with trypan blue and viable cells were counted to ensure a cell viability of 90% or more. • b) 95 μL of cell suspension (2000 cells/well) was added to each well of the compound assay cell plate, and cell-free culture medium containing 0.1% DMSO was added to the Min control wells. • c) Administration in the compound assay cell plate: 5 μL of 20× compound working solution was added to the cell culture plate. 5 μL of DMSO-cell culture medium mixture was added to the Max control wells. The final concentration of DMSO was 0.1%. • d) The culture plate was then incubated in an incubator at 37° C. with 5% CO2 for 72 hours.
The following steps were conducted in accordance with the instructions of the Promega CellTiter-Glo Luminescent Cell Viability Assay Kit (Promega-G7573). • a) CellTiter-Glo buffer was thawed and brought to room temperature. • b) CellTiter-Glo substrate was also brought to room temperature. • c) CellTiter-Glo buffer was added to a bottle of CellTiter-Glo substrate to dissolve the substrate, thereby preparing CellTiter-Glo working solution. • d) The mixture was slowly vortexed and shaken to be fully dissolved. • e) The cell culture plate was removed and allowed to equilibrate to room temperature for 10 minutes. • f) 50 μL (equal to half the volume of cell culture medium in each well) of CellTiter-Glo working solution was added to each well. • g) The culture plate was shaken on an orbital shaker for 2 minutes to induce cell lysis. • h) The plate was then left at room temperature for 10 minutes to stabilize the luminescent signal. • i) The luminescent signal was detected using a SpectraMax Paradigm plate reader.
Data analysis was conducted using GraphPad Prism 5.0 software. Nonlinear S-curve regression was employed to fit the data and generate dose-response curves. From these curves, the IC50 values were calculated.

[1] = test system: TYK2 signaling pathway (IFN-α/pSTAT1); assay: IFN-α-induced STAT1 phosphorylation in mouse whole blood; assay type: cell-based; conditions: CD3+ cells
Description: The purpose of this experiment was to detect the inhibitory effect of the compound on the JAK-STAT signaling pathway activated by IFN-α in mouse whole blood. Fresh mouse whole blood was collected and placed in a 96-well plate. The test compound was added and incubated for 1 hour, followed by stimulation with IFN-α. The corresponding STAT1 phosphorylation level in the CD3^+ cell population was analyzed using flow cytometer by means of surface antibody staining and intracellular phosphorylated antibody staining. The IFN-α-induced STAT1 phosphorylation in mouse whole blood is dependent on TYK2 activity. By detecting the inhibitory activity of the compound on downstream […] phosphorylation, the half maximal inhibitory concentration (IC50) of the compound on TYK2 signaling pathway activity can be determined.
• a) The compound was prepared into a 10 mM solution with dimethyl sulfoxide (DMSO), and diluted in DMSO to a solution with various concentrations, 500 times the final concentration. • b) 5 μL of the diluted compound was transferred to 120 μL of phosphate buffered saline (PBS) containing 0.1% bovine serum albumin (BSA). • c) Positive and negative control groups were set up, with both finally containing 0.2% DMSO.
• a) 67.5 μL of mouse whole blood was added to each well of a 96-well cell culture plate. • b) 3.5 μL of the diluted compound was added thereto and mixed thoroughly. • c) The plate was incubated in a 37° C. incubator for 60 minutes. • d) Mouse interferon recombinant protein was diluted 125-fold in PBS containing 0.1% BSA, and anti-mouse CD3 antibody was diluted 5-fold in PBS containing 0.1% BSA. 5 μL of diluted anti-mouse CD3 antibody and 4 μL of diluted mouse interferon recombinant protein were added to each well. • e) The plate was incubated in a 37° C. incubator for 30 minutes. • f) All cells were transferred to a 96-well deep well plate, and 1 mL of 37° C. pre-warmed 1× lysis/fixation buffer was added thereto. • g) The cells were incubated in the dark at 37° C. for 10 minutes. • h) After centrifugation at 600 g for 5 minutes, the supernatant was discarded, and the cells were washed twice with 1 mL of PBS by centrifugation. • i) 0.4 mL per well of permeabilization buffer was added to the cell pellet and mixed thoroughly. The cells were incubated in the dark at 4° C. for 30 minutes. • j) After centrifugation at 600 g for 5 minutes, the supernatant was discarded, and the cells were washed twice with 1 mL of flow cytometry staining buffer (PBS+0.2% BSA+1 mM EDTA) by centrifugation. • k) Anti-STAT1 antibody was diluted 65-fold in flow cytometry staining buffer, and added to cell-containing wells at 100 μL per well and mixed thoroughly. • l) The cells were incubated at room temperature for 40 minutes. • m) 1 mL per well of flow cytometry staining buffer was added, and the cells were washed twice by centrifugation at 600 g for 5 minutes. • n) The supernatant was discarded, and the cell pellet was resuspended in 300 μL of flow cytometry staining buffer. • o) The samples were loaded for analysis using the Beckman CytoFlex flow cytometer.
Data were analyzed using FlowJo software. Curve fitting was performed and the IC50 was calculated using GraphPad Prism 8 software.

SMILES: CNC(=O)c1cnc(NC(=O)C2CC2)cc1Nc1cccc(-c2ccc(S(=O)(=O)C(C)C)cn2)c1OC.Cl [Hydrochloride of WX-020]
- IC50 (Ba/F3-TEL-TYK2 cells): > 10000 nM

SMILES: CNC(=O)c1cnc(NC(=O)C2CC2)cc1Nc1cccc(-c2ncc(S(=O)(=O)C(C)C)cn2)c1OC [WX-019]
- IC50 (Ba/F3-TEL-TYK2 cells): > 10000 nM
- IC50 [1]: 427 nM

SMILES: CNC(=O)c1cnc(NC(=O)C2CC2)cc1Nc1cccc(-c2ccc(S(=O)(=O)C(C)C)cn2)c1OC [WX-020]
- IC50 [1]: 369 nM

SMILES: CNC(=O)c1nnc(NC(=O)C2CC2)cc1Nc1cccc(-c2ncc(S(=N)(=O)C(C)C)cn2)c1OC (single isomer, unassigned) [WX-011B]
- IC50 (Ba/F3-TEL-TYK2 cells): > 10000 nM
- IC50 [1]: 375 nM

SMILES: CNC(=O)c1nnc(NC(=O)C2CC2)cc1Nc1cccc(-c2ccc(P(=O)(C3CC3)C3CC3)cn2)c1OC [WX-021]
- IC50 (Ba/F3-TEL-TYK2 cells): > 10000 nM
- IC50 [1]: 452 nM

SMILES: CNC(=O)c1nnc(NC(=O)C2CC2)cc1Nc1cccc(-c2ccc(S(=N)(=O)C(C)C)cn2)c1OC (single isomer, unassigned) [WX-012A]
- IC50 (Ba/F3-TEL-TYK2 cells): > 10000 nM

SMILES: CNC(=O)c1nnc(NC(=O)C2CC2)cc1Nc1cccc(-c2ncc(S(=N)(=O)C(C)C)cn2)c1OC (single isomer, unassigned) [WX-011A]
- IC50 (Ba/F3-TEL-TYK2 cells): > 10000 nM
- IC50 [1]: 148 nM

SMILES: CNC(=O)c1nnc(NC(=O)C2CC2)cc1Nc1cccc(-c2ccc(S(=N)(=O)C(C)C)cn2)c1OC (single isomer, unassigned) [WX-012B]
- IC50 (Ba/F3-TEL-TYK2 cells): > 10000 nM
- IC50 [1]: 419 nM
